Consider three compounds from ChEMBL document CHEMBL5465560, “Selectivity Literature for EUbOPEN Chemogenomic Library” (2024).

The target of data set [1] is L-type calcium channel Cav1.2 (CACNA1C) (Homo sapiens, UniProt Q13936). Put plainly: Selectivity interaction (Eurofins CEREP Diversity Profile (receptors and ion channels)) EUB0000279b CACNA1C. The settings on record: at 10 µM, read-out: % of control.
Data set [2] concerns the target T1, Inhibitor of nuclear factor kappa-B kinase subunit epsilon (Homo sapiens) (UniProt Q14164).
T1 sequence (whole entry): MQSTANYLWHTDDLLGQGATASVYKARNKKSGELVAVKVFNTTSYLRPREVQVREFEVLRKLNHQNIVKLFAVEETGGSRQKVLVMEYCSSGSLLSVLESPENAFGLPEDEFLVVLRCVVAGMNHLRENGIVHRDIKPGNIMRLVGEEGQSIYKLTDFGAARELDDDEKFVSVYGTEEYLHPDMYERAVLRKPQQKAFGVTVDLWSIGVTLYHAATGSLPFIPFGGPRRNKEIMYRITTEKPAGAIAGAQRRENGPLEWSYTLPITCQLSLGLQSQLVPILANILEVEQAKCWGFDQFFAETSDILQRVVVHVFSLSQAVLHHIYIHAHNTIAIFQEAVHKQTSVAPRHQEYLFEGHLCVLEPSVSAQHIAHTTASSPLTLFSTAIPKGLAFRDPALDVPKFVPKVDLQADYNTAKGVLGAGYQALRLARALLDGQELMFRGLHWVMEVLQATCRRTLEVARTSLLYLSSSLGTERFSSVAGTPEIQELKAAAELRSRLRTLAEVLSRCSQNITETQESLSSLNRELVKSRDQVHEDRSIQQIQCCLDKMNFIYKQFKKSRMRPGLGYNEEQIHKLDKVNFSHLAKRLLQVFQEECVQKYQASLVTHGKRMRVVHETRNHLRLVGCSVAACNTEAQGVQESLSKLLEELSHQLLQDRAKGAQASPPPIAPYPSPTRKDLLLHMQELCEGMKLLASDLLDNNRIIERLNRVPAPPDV
As to the kind of experiment: Selectivity interaction (ActivX KiNativ screen (kinase selectivity in THP-1 cell lysates)) EUB0000639a IKBKE. It counts as subcellular. The settings on record: lysate, at 1 µM.

Data set [3] addresses T2, Mitogen-activated protein kinase kinase kinase 5 (Homo sapiens) (UniProt Q99683).
T2 sequence (whole entry): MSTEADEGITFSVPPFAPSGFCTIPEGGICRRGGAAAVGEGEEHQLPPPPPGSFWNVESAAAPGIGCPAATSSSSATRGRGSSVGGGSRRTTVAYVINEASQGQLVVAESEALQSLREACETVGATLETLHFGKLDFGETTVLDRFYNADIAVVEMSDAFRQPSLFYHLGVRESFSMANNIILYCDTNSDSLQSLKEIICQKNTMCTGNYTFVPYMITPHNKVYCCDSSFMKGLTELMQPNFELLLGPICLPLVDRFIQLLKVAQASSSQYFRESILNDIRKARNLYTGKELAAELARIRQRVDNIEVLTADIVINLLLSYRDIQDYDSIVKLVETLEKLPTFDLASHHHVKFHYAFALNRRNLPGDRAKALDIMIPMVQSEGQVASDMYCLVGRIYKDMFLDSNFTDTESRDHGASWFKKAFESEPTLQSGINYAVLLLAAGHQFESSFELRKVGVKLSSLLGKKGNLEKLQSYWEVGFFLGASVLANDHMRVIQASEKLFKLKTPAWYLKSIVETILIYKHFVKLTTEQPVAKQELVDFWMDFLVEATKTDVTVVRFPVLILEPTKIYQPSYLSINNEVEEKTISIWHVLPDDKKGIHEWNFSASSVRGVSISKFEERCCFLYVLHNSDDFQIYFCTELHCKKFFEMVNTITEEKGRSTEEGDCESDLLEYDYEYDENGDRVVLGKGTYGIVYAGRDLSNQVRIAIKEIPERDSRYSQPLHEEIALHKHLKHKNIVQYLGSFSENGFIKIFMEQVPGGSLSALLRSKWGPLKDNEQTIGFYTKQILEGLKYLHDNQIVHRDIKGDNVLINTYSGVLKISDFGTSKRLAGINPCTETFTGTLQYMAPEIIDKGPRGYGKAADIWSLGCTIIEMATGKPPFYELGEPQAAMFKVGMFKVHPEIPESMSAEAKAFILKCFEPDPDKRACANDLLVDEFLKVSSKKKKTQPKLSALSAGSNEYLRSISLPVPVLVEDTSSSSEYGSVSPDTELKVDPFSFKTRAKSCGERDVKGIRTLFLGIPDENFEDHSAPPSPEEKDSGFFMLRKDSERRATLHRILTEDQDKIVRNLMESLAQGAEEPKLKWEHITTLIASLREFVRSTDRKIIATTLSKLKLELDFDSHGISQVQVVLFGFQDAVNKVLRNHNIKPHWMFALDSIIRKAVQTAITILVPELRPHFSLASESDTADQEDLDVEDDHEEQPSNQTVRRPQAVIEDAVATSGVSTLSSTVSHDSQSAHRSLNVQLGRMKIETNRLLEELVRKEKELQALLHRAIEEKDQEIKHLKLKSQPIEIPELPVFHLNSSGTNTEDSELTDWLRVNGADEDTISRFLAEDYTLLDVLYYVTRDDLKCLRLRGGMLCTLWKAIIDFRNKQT
Put plainly: Selectivity interaction (ActivX KiNativ screen (kinase selectivity in THP-1 cell lysates)) EUB0000639a MAP3K5. It counts as subcellular. The following applies: lysate, at 1 µM.

The target in data set [4] is T3, Dual specificity tyrosine-phosphorylation-regulated kinase 2 (Homo sapiens) (UniProt Q92630).
T3 sequence (whole entry): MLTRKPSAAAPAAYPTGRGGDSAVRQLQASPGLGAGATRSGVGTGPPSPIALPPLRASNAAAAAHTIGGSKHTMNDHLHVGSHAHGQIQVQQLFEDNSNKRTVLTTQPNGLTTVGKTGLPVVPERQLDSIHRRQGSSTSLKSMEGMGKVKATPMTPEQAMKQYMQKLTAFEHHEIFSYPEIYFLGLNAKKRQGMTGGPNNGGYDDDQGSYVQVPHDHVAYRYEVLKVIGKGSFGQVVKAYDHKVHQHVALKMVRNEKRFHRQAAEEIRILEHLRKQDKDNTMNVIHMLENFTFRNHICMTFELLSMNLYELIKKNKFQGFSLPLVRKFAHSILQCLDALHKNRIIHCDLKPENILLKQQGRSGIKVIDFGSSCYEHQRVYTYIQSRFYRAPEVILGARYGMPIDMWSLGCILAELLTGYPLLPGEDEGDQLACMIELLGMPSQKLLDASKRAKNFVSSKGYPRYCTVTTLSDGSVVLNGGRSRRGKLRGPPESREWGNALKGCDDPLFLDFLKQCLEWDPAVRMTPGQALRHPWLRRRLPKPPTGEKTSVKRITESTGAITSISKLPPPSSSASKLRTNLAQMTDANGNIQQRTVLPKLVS
Put plainly: Selectivity interaction (Ambit KINOMEscan and KiNATiv profiling in Jurkat cells) EUB0000090b DYRK2. The settings on record: at 1 µM. The class given is cell-based.

Sequence of L-type calcium channel Cav1.2 (CACNA1C) (Q13936 whole entry): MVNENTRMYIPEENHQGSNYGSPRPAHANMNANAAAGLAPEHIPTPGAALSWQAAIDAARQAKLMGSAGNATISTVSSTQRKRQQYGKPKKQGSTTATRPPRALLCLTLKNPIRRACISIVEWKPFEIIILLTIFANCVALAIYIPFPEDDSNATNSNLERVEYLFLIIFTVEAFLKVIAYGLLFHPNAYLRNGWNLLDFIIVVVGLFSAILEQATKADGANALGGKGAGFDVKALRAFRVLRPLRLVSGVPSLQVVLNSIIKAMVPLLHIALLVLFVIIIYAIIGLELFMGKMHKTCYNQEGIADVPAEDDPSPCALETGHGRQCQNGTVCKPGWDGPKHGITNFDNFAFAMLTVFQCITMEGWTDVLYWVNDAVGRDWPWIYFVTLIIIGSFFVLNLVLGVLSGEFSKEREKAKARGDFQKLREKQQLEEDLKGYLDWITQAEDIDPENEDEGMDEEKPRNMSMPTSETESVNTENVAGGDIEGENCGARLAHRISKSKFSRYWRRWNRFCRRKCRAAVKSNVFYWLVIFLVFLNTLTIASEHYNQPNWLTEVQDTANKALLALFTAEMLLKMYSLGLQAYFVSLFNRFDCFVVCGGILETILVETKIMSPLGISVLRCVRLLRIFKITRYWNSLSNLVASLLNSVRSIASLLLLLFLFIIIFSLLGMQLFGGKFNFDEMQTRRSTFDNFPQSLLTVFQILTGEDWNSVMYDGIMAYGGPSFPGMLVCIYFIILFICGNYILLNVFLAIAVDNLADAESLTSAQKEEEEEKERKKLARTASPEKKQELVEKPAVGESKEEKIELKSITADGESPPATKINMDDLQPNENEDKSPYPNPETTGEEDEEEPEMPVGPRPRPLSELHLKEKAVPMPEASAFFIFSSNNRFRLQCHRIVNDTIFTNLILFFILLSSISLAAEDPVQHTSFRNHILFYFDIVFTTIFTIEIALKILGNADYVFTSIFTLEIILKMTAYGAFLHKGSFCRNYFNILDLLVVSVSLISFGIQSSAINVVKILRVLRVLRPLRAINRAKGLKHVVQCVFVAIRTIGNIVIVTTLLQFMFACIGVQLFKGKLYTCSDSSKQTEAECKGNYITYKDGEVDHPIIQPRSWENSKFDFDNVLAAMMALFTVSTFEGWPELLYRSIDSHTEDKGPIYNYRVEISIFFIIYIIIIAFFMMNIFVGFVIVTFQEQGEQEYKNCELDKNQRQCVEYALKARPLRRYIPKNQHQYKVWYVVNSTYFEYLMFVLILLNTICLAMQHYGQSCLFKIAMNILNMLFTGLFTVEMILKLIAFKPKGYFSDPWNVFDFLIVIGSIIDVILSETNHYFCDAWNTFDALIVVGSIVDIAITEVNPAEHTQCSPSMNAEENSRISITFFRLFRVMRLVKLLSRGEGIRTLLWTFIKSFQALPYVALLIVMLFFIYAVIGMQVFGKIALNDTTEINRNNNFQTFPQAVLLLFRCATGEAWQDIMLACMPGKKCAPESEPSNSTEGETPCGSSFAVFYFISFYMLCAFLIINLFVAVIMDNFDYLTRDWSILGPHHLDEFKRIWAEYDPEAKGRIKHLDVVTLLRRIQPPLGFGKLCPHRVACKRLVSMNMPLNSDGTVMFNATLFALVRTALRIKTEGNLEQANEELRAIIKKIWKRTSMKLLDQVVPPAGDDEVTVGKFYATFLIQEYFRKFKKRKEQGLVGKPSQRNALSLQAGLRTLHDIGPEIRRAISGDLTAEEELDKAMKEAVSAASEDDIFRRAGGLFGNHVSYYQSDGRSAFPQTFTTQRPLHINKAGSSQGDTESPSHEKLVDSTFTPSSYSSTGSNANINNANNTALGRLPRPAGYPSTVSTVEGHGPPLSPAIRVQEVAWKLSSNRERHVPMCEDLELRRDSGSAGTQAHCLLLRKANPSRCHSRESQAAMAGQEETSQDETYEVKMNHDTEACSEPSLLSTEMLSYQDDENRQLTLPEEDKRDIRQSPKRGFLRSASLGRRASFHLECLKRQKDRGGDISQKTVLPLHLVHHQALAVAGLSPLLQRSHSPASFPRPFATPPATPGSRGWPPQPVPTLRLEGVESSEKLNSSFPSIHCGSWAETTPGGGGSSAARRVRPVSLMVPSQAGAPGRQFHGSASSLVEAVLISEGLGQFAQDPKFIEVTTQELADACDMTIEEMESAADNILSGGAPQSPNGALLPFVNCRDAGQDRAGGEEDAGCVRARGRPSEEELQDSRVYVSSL

In the case of `CC(=O)c1cc(-c2ccccc2OCC2CC2)c2ncccn12`, the activity in data set [1] is 89%.
Consider `CC[C@@H]1[C@H](F)C(=O)N[C@@H]1COc1nccc2cc(C(N)=O)c(OC)cc12` [ZIMLOVISERTIB], for which the figures for the % of inhibition in data set [2] and in data set [3] were 10% and -29.6%, respectively.
Regarding `CN(C)C/C=C/C(=O)Nc1ccc(C(=O)N2CCCC(Nc3ncc(Cl)c(-c4c[nH]c5ccccc45)n3)C2)cc1` (centres undefined), in data set [4], the % of control was found to be 7.4%.
